The target of one experiment is ERα (Homo sapiens (Human), UniProt P03372). Nature of the experiment: ERα degradation (MCF7 cells), in-cell Western. The conditions noted are these: MCF7 cells; for pIC50: inflection point of the degradation in response to ligand concentration; for % ERα remaining: remaining ERα protein at 10 μM ligand, relative to DMSO control. It is filed as cell-based. Here is the method: ERα Degradation (MCF7 Cells)
(§1) The column titled MCF7 IC50 reports the inflection point of the inhibition of transcription in MCF7 cells as described above. Percentage ERα remaining reports the remaining ERα protein measured at 10 μM concentration of the ligand as described above. The column ERα IC50 reports the inflection point of the degradation in response to the ligand concentration.

The target of experiment [1] is ER (endogenous, MCF7 cells) (Homo sapiens (Human), UniProt P03372). Nature of the experiment: ER transcription assay (MCF7 cells), ERE-luciferase reporter. The conditions noted are these: inflection point of the inhibition of transcription in MCF7 cells; 0.1 nM estradiol, 24 hours; read-out: MCF7 IC50. It is filed as cell-based.
Sequence of ER (endogenous, MCF7 cells) (P03372 whole entry): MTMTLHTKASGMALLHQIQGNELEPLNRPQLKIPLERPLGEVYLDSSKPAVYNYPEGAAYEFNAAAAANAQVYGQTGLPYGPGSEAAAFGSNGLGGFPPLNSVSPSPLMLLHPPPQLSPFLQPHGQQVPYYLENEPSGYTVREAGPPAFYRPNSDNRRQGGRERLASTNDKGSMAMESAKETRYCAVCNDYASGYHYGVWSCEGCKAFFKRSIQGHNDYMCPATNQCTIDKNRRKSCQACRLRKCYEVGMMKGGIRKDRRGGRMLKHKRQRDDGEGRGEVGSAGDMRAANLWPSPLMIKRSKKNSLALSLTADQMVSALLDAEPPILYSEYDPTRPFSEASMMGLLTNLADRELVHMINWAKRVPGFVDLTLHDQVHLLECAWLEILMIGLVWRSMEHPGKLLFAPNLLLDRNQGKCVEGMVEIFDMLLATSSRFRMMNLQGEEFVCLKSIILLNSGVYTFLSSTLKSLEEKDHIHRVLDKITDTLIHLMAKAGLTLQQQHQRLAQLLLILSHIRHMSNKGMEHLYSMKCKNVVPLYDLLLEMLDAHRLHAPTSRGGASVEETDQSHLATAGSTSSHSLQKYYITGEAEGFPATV
Description: ER Transcription Assay (MCF7 Cells)
The ER transcription assay is a reporter assay that is based on the ability of ER to induce transcription from a luciferase reporter gene containing estrogen response elements (EREs) in the promoter/enhancer region. When the reporter gene is transfected in MCF7 cells (containing endogenous ER), transcription is reflected by the level of luciferase expression.
A day before transfection, cells are split into a T75 flask at a cell density of 300,000 cells/mL (10 mL total) and allowed to attach overnight in a humidified CO2 incubator at 37° C.
Approximately 20 ug DNA is mixed in OptiMEM (Invitrogen) to a total volume of 650 μL. Following incubation, the OptiMEM-DNA mixture is added to the OptiMEM-Lipofectin mix and incubated for 15 minutes at 37° C. The DNA-Lipofectin mixture is then added directly to the T75 flask and the flask is returned to the incubator.
Normally, DMSO (used as a vehicle) is included to achieve a final concentration of 0.1% when added to the cells. Transfected cells are trypsinized, resuspended in DMEM/F12/10% charcoal-stripped serum and added to the 96-well plate at 25,000 cells/well in 90 μL of media. The plate is then returned to the incubator for 24 hours.
After incubation with compounds for 24 hours, Firefly and Renilla luciferase activities are measured to determine ER transcriptional activity. Media is removed from 96-well plates by decanting and blotting on paper towels.
One second total read time after a one second delay.
One second total read time after one second delay. If Firefly luciferase signal is high, Renilla assay must be done an hour after the Firefly assay due to incomplete squelching of Firefly signal.
as §1
(In general: Reporter assays use an easily measured gene product as a stand-in for the process of interest.)

Consider 20 compounds from US10058534B2, “Benzothiophene derivatives and compositions thereof as selective estrogen receptor degraders” (NOVARTIS AG, priority 2013, dated 2018).

pIC50: −log10 of the molar value.

Sequence of ERα (P03372 whole entry): as above

What is called pIC50 is the negative decadic logarithm of the IC50, by convention in mol/L. Take `O=C(O)/C=C/c1ccc(Oc2c(-c3ccccc3CN3CCC3)sc3cc(O)ccc23)cc1` [Example 97, (E)-3-(4-((2-(2-(azetidin-1-ylmethyl)phenyl)-6-hydroxybenzo[b]thiophen-3-yl)oxy)phenyl)acrylic acid]: on ERα, the pIC50 is 7.60 and the “% ERα remaining” value is 18%. Also, the pIC50 in experiment [1] is 6.53.
Take `CC(C)c1cccc(-c2sc3cc(O)ccc3c2Oc2ccc(/C=C/C(=O)O)cc2)c1` [Example 98, (E)-3-(4-((6-hydroxy-2-(3-isopropylphenyl)benzo[b]thiophen-3-yl)oxy)phenyl)acrylic acid]: at ERα, the pIC50 was 8.18 and the “% ERα remaining” value turned out to be 19%. In addition, the pIC50 in experiment [1] was 6.42.
On to `O=C(O)/C=C/c1ccc(Oc2c(-c3ccc(F)cc3CN3CCCC3=O)sc3cc(O)ccc23)cc1` [Example 99, (E)-3-(4-((2-(4-fluoro-2-((2-oxopyrrolidin-1-yl)methyl)phenyl)-6-hydroxybenzo[b]thiophen-3-yl)oxy)phenyl)acrylic acid], for which the “% ERα remaining” value at ERα turned out to be 14%. Further, the pIC50 in experiment [1] is 6.26.
For the compound `Cc1ncccc1-c1sc2cc(O)ccc2c1Oc1ccc(/C=C/C(=O)O)cc1` [Example 100, (E)-3-(4-((6-hydroxy-2-(2-methylpyridin-3-yl)benzo[b]thiophen-3-yl)oxy)phenyl)acrylic acid], on ERα, the negative-log IC50 (pIC50) is 8.27 and the “% ERα remaining” value was 12%. Moreover, the pIC50 in experiment [1] was 6.17.
Regarding `CC(C)c1ccccc1-c1sc2c(F)c(O)ccc2c1Oc1ccc(/C=C/C(=O)O)cc1` [Example 101, (E)-3-(4-((7-fluoro-6-hydroxy-2-(2-isopropylphenyl)benzo [b]thiophen-3-yl)oxy)phenyl)acrylic acid], on ERα, the pIC50 was 9.70 and the “% ERα remaining” value was 18%. Also, in experiment [1], the pIC50 is 8.38.
Consider `CCCc1nnc(/C=C/c2ccc(Oc3c(-c4ccccc4C(C)C)sc4cc(O)ccc34)cc2)o1` [Example 103, (E)-2-(2-isopropylphenyl)-3-(4-(2-(5-propyl-1,3,4-oxadiazol-2-yl)vinyl)phenoxy)benzo [b]thiophen-6-ol], for which, on ERα, the pIC50 is 8.48 and the “% ERα remaining” value was determined as 31%. Moreover, the pIC50 in experiment [1] is 7.92.
Take `CC(C)c1ccccc1-c1sc2cc(O)ccc2c1Oc1ccc(/C=C/c2nnc(C3CC3)o2)cc1` [Example 104, (E)-3-(4-(2-(5-cyclopropyl-1,3,4-oxadiazol-2-yl)vinyl)phenoxy)-2-(2-isopropylphenyl)benzo [b]thiophen-6-ol]: the “% ERα remaining” value at ERα stood at 29%. Also, in experiment [1], the pIC50 was 7.49.
For the compound `Cc1nnc(/C=C/c2ccc(Oc3c(-c4ccccc4C(C)C)sc4cc(O)ccc34)cc2)[nH]1` [Example 105, (E)-2-(2-isopropylphenyl)-3-(4-(2-(5-methyl-4H-1,2,4-triazol-3-yl)vinyl)phenoxy)benzo [b]thiophen-6-ol], the pIC50 against ERα is 8.96; in experiment [1], 7.85. Further, the “% ERα remaining” value on ERα is reported as 25%.
For `CCCc1nnc(/C=C/c2ccc(Oc3c(-c4ccccc4C(C)C)sc4cc(O)ccc34)cc2)[nH]1` [Example 107, (E)-2-(2-isopropylphenyl)-3-(4-(2-(5-propyl-4H-1,2,4-triazol-3-yl)vinyl)phenoxy)benzo [b]thiophen-6-ol], in that order: 8.40, 7.18 and 29%.
With `O=C(O)/C=C/c1ccc(Oc2c(-c3ccccc3CC(F)(F)F)sc3cc(O)ccc23)cc1` [Example 109, (E)-3-(4-((6-hydroxy-2-(2-(2,2,2-trifluoroethyl)phenyl)benzo[b]thiophen-3-yl)oxy)phenyl)acrylic acid], on ERα, the pIC50 is 9.70 and the “% ERα remaining” value stood at 16%. The pIC50 in experiment [1] is 7.92.
The like results for `CC(F)c1ccccc1-c1sc2cc(O)ccc2c1Oc1ccc(/C=C/C(=O)O)cc1` (stereo not shown) [Example 111, (E)-3-(4-((2-(2-(1-fluoroethyl)phenyl)-6-hydroxybenzo[b]thiophen-3-yl)oxy)phenyl)acrylic acid] were, in that order, 9.52, 17% and 7.60.
As for `CC/C(=C\c1ccc(Oc2c(-c3ccccc3C(C)C)sc3cc(O)ccc23)cc1)C(=O)O` [Example 113, (E)-2-(4-((6-hydroxy-2-(2-isopropylphenyl)benzo [b]thiophen-3-yl)oxy)benzylidene) butanoic acid], on ERα, the pIC50 was 8.66 and the “% ERα remaining” value was found to be 24%. The pIC50 in experiment [1] is 7.21.
`CC/C(=C\c1ccc(Oc2c(-c3ccc(O)cc3)sc3cc(O)ccc23)cc1)C(=O)O` [Example 114, (E)-2-(4-((6-hydroxy-2-(4-hydroxyphenyl)benzo [b]thiophen-3-yl)oxy)benzylidene) butanoic acid]: at ERα, the pIC50 is 8.19 and the “% ERα remaining” value came to 35%. Also, in experiment [1], the pIC50 is 6.67.
For `CC(C)c1ncoc1-c1sc2cc(O)ccc2c1Oc1ccc(/C=C/C(=O)O)cc1` [Example 115, (E)-3-(4-((6-hydroxy-2-(4-isopropyloxazol-5-yl)benzo[b]thiophen-3-yl)oxy)phenyl)acrylic acid], on ERα, the pIC50 is 8.28 and the “% ERα remaining” value is listed as 15%. Moreover, in experiment [1], the pIC50 is 6.57.
For the compound `C[C@@H](O)c1ccccc1-c1sc2cc(O)ccc2c1Oc1ccc(/C=C/C(=O)O)cc1` [Example 116, (R,E)-3-(4-((6-hydroxy-2-(2-(1-hydroxyethyl)phenyl)benzo[b]thiophen-3-yl)oxy)phenyl)acrylic acid], at ERα, the pIC50 is 7.92 and the “% ERα remaining” value was 24%. The pIC50 in experiment [1] was 6.51.
For the compound `CC(C)c1ccccc1-c1sc2cc(O)ccc2c1Oc1ccc(/C=C/C(=O)O)nc1` [Example 117, (E)-3-(5-((6-hydroxy-2-(2-isopropylphenyl)benzo [b]thiophen-3-yl)oxy)pyridin-2-yl)acrylic acid], on ERα, the “% ERα remaining” value was 16%. For the same compound, the pIC50 in experiment [1] is 7.27.
For the compound `CC(C)c1ccccc1-c1sc2cc(O)ccc2c1Nc1ccc(/C=C/C(=O)O)cc1` [Example 118, (E)-3-(4-((6-hydroxy-2-(2-isopropylphenyl)benzo [b]thiophen-3-yl)amino)phenyl)acrylic acid], the pIC50 was 8.55 against ERα and 7.17 in experiment [1]. In addition, at ERα, the “% ERα remaining” value amounted to 14%.
As for `CC(C)c1ccccc1-c1sc2cc(O)ccc2c1N(C)c1ccc(/C=C/C(=O)O)cc1` [Example 119, (E)-3-(4-((6-hydroxy-2-(2-isopropylphenyl)benzo [b]thiophen-3-yl)(methyl)amino)phenyl) acrylic acid], at ERα, the pIC50 is 8.21 and the “% ERα remaining” value is on record as 19%. In experiment [1], the pIC50 is 6.96.
As to `CC(=O)/C=C/c1ccc(Oc2c(-c3ccc(F)cc3C(F)(F)F)sc3cc(O)ccc23)cc1` [Example 120, (E)-4-(4-((2-(4-fluoro-2-(trifluoromethyl)phenyl)-6-hydroxybenzo[b]thiophen-3-yl)oxy)phenyl)but-3-en-2-one], the “% ERα remaining” value at ERα is given as 70%. Also, in experiment [1], the pIC50 was 8.29.
In the case of `CC(=O)/C=C/c1ccc(Oc2c(-c3ccc(C(F)(F)F)cc3)sc3cc(O)ccc23)cc1` [Example 121, (E)-4-(4-((6-hydroxy-2-(4-(trifluoromethyl)phenyl)benzo[b]thiophen-3-yl)oxy)phenyl)but-3-en-2-one], the “% ERα remaining” value at ERα is reported as 56%. Further, the pIC50 in experiment [1] is 6.67.
